Like-named read-outs stand apart in the source and are kept apart here. No end group written: not given here.
Key:
[1] = molecular target: human anti-Galα(1,3)Gal IgG antibodies; experiment: Elisa: inhibition of anti-Galα(1,3)Gal IgG binding to Galα(1,3)Gal-BSA; settings: for Inhibition of anti-Galα(1,3)Gal IgG binding to Galα(1,3)Gal-BSA (in words) / Inhibition of binding of anti-Galα(1,3)Gal IgG to Galα(1,3)Gal-BSA: Elisa; for Inhibition of anti-Galα(1,3)Gal IgG binding to Galα(1,3)Gal-BSA (in words): varying concentrations of inhibitor; for Inhibition of binding of anti-Galα(1,3)Gal IgG to Galα(1,3)Gal-BSA: peptides at 5 mM (FIG. 8b)
Experimental: (§1) 50 μl of either purified anti-Galα(1,3)Ga IgG or biotinylated IB4 lectin was added to the wells, incubated for 45 minutes at 22° C., washed with PBS-0.05% Tween 20, and 50 μl of the relevant IIRP conjugate added and incubated for a further 45 minutes before washing and the addition of 50 μl of substrate (2,2′ Azino-di-B-ethylbenzthiozoline (Zymed, San Francisco, Calif.)) and reading the OD405.
(§2) An Elisa was established to calculate the relative “affinity” of the Gal pep 1 (SEQ ID No. 1) for the IB4 lectin and for human anti-Galα(1,3)Gal antibodies, and to compare these with the affinities for α-galactosyl sugars.
(§3) Peptides or carbohydrates were examined cytofluorographically for their ability to inhibit antibody/lectin binding to the cell surface using a FACSCAN flow cytometer (Becton Dickinson, USA)[20]: 25 μl of inhibitor was mixed with 25 μl of antibody of lectin and incubated at 22° C. for 3 hours (peptides) or at 4° C. for 16 hours (carbohydrates)[14], prior to addition of appropriate targets. An Elisa assay was used to calculate the relative affinities of the sugars or the peptides for both IB4 lectin and antibodies, and were defined as the molar concentration of inhibitor giving 50% inhibition of the maximal binding of lectin or antibody.

IB4 lectin [2] = molecular target: T1, IB4 lectin (Griffonia simplicifolia, UniProt Q8W1R6); experiment: Elisa: inhibition of IB4 lectin binding to Galα(1,3)Gal-BSA; settings: for Inhibition of IB4 lectin binding to Galα(1,3)Gal-BSA (in words) / Inhibition of binding of IB4 to Galα(1,3)Gal-BSA: Elisa; for Inhibition of IB4 lectin binding to Galα(1,3)Gal-BSA (in words): varying concentrations of inhibitor; for Inhibition of binding of IB4 to Galα(1,3)Gal-BSA: peptide concentration 5 mM (FIG. 8a)
T1 sequence (Q8W1R6 1-247): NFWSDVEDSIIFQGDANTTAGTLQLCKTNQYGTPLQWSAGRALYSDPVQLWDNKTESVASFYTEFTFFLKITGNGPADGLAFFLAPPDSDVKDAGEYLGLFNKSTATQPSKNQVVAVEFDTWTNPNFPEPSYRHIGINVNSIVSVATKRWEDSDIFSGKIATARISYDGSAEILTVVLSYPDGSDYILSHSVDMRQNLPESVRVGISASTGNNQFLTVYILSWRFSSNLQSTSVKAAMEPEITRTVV
Experimental: as §1, §2, §3

IB4 lectin [3] = molecular target: T1, IB4 lectin; experiment: Cytofluorographic inhibition of IB4 lectin binding to PIEC cells; format: cell-based
Experimental: FIGS. 3(A-C). […] (A); Staining of PIEC cells with IB4 lectin (1 μg/ml). (B) Staining of PIEC cells with NHS (final dilution of 1/50) and anti-human Ig. (C) Staining of PBL with IB4 lectin (μg/ml). Peptides were used at 5 mM (A and C) or at 20 mM (B). In each panel profile “a” represents binding in the presence of Gal pep 1 (SEQ ID No. 1), and profile “b” the binding in the presence of CD48 pep 1 (SEQ ID No. 11).
FIGS. 6(A-B). […] Varying concentrations of peptides (shown in mM on horizontal axis) were explained for ability to inhibit the binding of IB4 lectin (1 μg/ml) to tie PIEC cells using cytofluorographic analysis. (a) Gal pep 1 (SEQ ID No. 1) (□), Muc pep 1 (SEQ ID No. 15) (∘).
FIG. 7. […] All peptides used at 5 mM, using cytofluorograhic analysis. Inhibition calculated relative to no peptide control.
(§4) The binding of lectin or antibody to the surface of pig cells was detected by hemagglutination, cytotoxicity or flow cytometry using the FACSCAN flow cytometer (Becton Dickinson, Mountain View, Calif.).
as §3

IB4 lectin [4] = molecular target: T1, IB4 lectin; experiment: biochemical
PIEC cells = experiment: Inhibition of cytotoxicity of NHS and complement on PIEC; format: cell-based, pig; settings: peptide 10 mM to 2.5 mM, NHS 1/25
From the text: FIG. 4. Inhibition of cytotoxicity due to natural antibody and complement by Gal pep 1 (SEQ ID No. 1). Varying concentrations of Gal pep 1 (∘) or CD48 pep 1 (♦) (shown in mM on horizontal axis) were examined in a cytotoxicity assay using NHS (final dilution of 1/25) and PEEC cells as targets.
as §4
Human cytotoxic antibodies directly damage pig endothelial cells in a pig-to-human xenograft, therefore the ability of Gal pep 1 (SEQ ID No. 1) to inhibit the cytotoxicity of human antibodies on PIEC in vitro was tested; Gal pep 1 inhibited the cytotoxicity of NHS (10 mM to 2.5 mM), whereas CD48 pep 1 (SEQ ID No. 11) had no effect (FIG. 4).

[5] = Table 3, anti-Galα(1,3)Gal antibody (IgG) 87 μgs/ml, read-out: I50 Anti-Galα(1,3)Gal
[6] = Table 1, anti-Galα(1,3)Gal IgG 87 μg/ml, concentration giving 50% inhibition of binding, read-out: I50 anti-Galα(1,3)Gal IgG

WEADLHWS [Scram pep 1]
IC50 [1, 5]: > 20000 µM

OCC1OC(OC2C(O)C(O)OC(CO)C2O)C(O)C(O)C1O (stereo not drawn) [Galα(1,3)Gal]
Inhibition of IB4 lectin binding to Galα(1,3)Gal-BSA (in words) (IB4 lectin [2]): inhibited | IC50 (IB4 lectin [2]; Table 1, biotinylated IB4 lectin […], concentration giving 50% inhibition of binding, read-out: I50 IB4): < 30 µM | IC50 (IB4 lectin [2]; read-out: I50 IB4): < 30 µM | Inhibition of anti-Galα(1,3)Gal IgG binding to Galα(1,3)Gal-BSA (in words) [1]: inhibited | IC50 [1, 6]: 30 µM | IC50 [1, 5]: 30 µM

APDTRPAPGSTAPPAH [Muc pep 4]
Inhibition of binding of IB4 to Galα(1,3)Gal-BSA (IB4 lectin [2]): complete inhibition | Inhibition of binding of anti-Galα(1,3)Gal IgG to Galα(1,3)Gal-BSA [1]: partial inhibition | IC50 [1, 5]: 5000 µM | Inhibition of IB4 lectin binding to PIEC cells (IB4 lectin [3]; varying peptide concentrations (FIG. 6b)): partial inhibition

KYPTTTPISTTTMVTPTPTPTGTQTPTTT [Muc pep 9, human Muc2 VNTR]
Inhibition of binding of IB4 to Galα(1,3)Gal-BSA (IB4 lectin [2]): no inhibition | Inhibition of IB4 lectin binding to PIEC cells (IB4 lectin [3]; peptides at 5 mM (FIG. 7)): did not inhibit

CC(C)[C@H](NC(=O)[C@H](CO)NC(=O)[C@H](CO)NC(=O)[C@H](CCCNC(=N)N)NC(=O)[C@H](CCC(N)=O)NC(=O)[C@@H](NC(=O)[C@H](C)NC(=O)[C@H](CO)NC(=O)[C@@H](NC(=O)[C@H](CCC(=O)O)NC(=O)[C@H](CCCCN)NC(=O)[C@H](CCC(=O)O)NC(=O)CNC(=O)CNC(=O)[C@@H]1CCCN1C(=O)[C@@H](NC(=O)[C@H](CO)NC(=O)[C@H](CO)NC(=O)[C@H](C)NC(=O)[C@H](Cc1c[nH]cn1)NC(=O)CNC(=O)[C@H](CO)NC(=O)CNC(=O)[C@@H](N)[C@@H](C)O)[C@@H](C)O)[C@@H](C)O)[C@@H](C)O)C(=O)N1CCC[C@H]1C(=O)O [Muc pep 6]
Inhibition of binding of IB4 to Galα(1,3)Gal-BSA (IB4 lectin [2]): complete inhibition | Inhibition of IB4 lectin binding to PIEC cells (IB4 lectin [3]; peptides at 5 mM (FIG. 7)): partial inhibition

DAHWESWL [Gal pep 1]
IC50 (IB4 lectin [4]): 5000 µM | IC50 (IB4 lectin [2]): 300 µM | Inhibition of cytotoxicity of NHS on PIEC (PIEC cells): inhibited

TSSASTGHATPLPVTP [Muc pep 11]
Inhibition of binding of IB4 to Galα(1,3)Gal-BSA (IB4 lectin [2]): complete inhibition | Inhibition of binding of anti-Galα(1,3)Gal IgG to Galα(1,3)Gal-BSA [1]: inhibited | IC50 [1, 5]: 2500 µM | Inhibition of IB4 lectin binding to PIEC cells (IB4 lectin [3]; peptides at 5 mM (FIG. 7)): inhibited

RSSVPSSTEKNAVSMTSSVL [Muc pep 7, human Muc1 NH2 to VNTR]
Inhibition of binding of IB4 to Galα(1,3)Gal-BSA (IB4 lectin [2]): no inhibition | Inhibition of IB4 lectin binding to PIEC cells (IB4 lectin [3]; peptides at 5 mM (FIG. 7)): did not

YTFDQKIVEWDSRKSKC [CD48 pep 1]
IC50 (IB4 lectin [2]): > 20000 µM | IC50 (IB4 lectin [2]; read-out: I50 IB4, Table 3, biotinylated IB4 lectin 6.25 μgs/ml): > 20000 µM | Inhibition of cytotoxicity of NHS on PIEC (PIEC cells): had no effect

OCC1OC(OCC2OC(O)C(O)C(O)C2O)C(O)C(O)C1O (stereo not drawn) [Melibiose, Galα(1,6)Glc]
Inhibition of IB4 lectin binding to Galα(1,3)Gal-BSA (in words) (IB4 lectin [2]): inhibited | IC50 (IB4 lectin [2]; read-out: I50 IB4): 300 µM | Inhibition of anti-Galα(1,3)Gal IgG binding to Galα(1,3)Gal-BSA (in words) [1]: inhibited | IC50 [1, 6]: 125 to 300 µM

RYHHYSSNFSIPKANHSHSGDYYCKGSL [FcR pep 1, control peptide, MURINE FCRIIβ2]
Inhibition of binding of anti-Galα(1,3)Gal IgG to Galα(1,3)Gal-BSA [1]: had no effect

LSGVRFSAARTAHPLPQKH [TNF pep 1, control peptide, MURINE TNFβ]
Inhibition of binding of IB4 to Galα(1,3)Gal-BSA (IB4 lectin [2]): did not inhibit

From patent publication US6344203B1, “Mimicking peptides in cancer therapy” (The Austin Research Institute, priority 1995, dated 2002)
